Test results published in ChEMBL document CHEMBL1201862, “PubChem BioAssay data set” (2004).
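Tested at 5 concentrations; 48 h exposure; 96-well plates; endpoints linearly interpolated, else capped at highest concentration. At the GI50, growth is halved.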 Calls of active or inactive are those of the source. Cut-off read from the data, not from the text of the source: active = GI50 up to about 1.1 µM and inactive = higher.

How the values were obtained:
Assay in all cases: inhibition of tumour cell growth, NCI panel, 48 h
NCI-H460 = test system: NCI-H460
SNB-19 = test system: SNB-19
OVCAR-5 = test system: OVCAR-5
Hs-578T = test system: Hs-578T
TK-10 = test system: TK-10
RPMI-8226 = test system: RPMI-8226
SK-MEL-5 = test system: SK-MEL-5
MDA-N = test system: MDA-N
786-0 = test system: 786-0
SF-268 = test system: SF-268
SNB-75 = test system: SNB-75
SK-OV-3 = test system: SK-OV-3
SF-539 = test system: SF-539
LOX IMVI = test system: LOX IMVI
UACC-62 = test system: UACC-62
MDA-MB-231 = test system: MDA-MB-231
UACC-257 = test system: UACC-257
NCI-H226 = test system: NCI-H226
HCC 2998 = test system: HCC 2998
OVCAR-8 = test system: OVCAR-8

Measured: GI50

O=C(/C=C/c1ccccc1)CCN1CCN(CCC(=O)/C=C/c2ccccc2)CC1
inactive: NCI-H460 15.2 µM | SNB-19 17.6 µM | OVCAR-5 16.7 µM | Hs-578T 10.4 µM | TK-10 16.4 µM | RPMI-8226 > 100 µM | SK-MEL-5 14.7 µM | MDA-N 2.19 µM | 786-0 6.05 µM | SF-268 13.8 µM | SNB-75 15.8 µM | SK-OV-3 13.5 µM | SF-539 14.9 µM | LOX IMVI 2.38 µM | UACC-62 16.3 µM | MDA-MB-231 5.5 µM | UACC-257 11.5 µM | NCI-H226 16.2 µM | HCC 2998 16.7 µM | OVCAR-8 16.3 µM

CCCCCCCCCCCCN(CC(O)C(O)C(OC1OC(CO)C(O)C(O)C1O)C(O)CO)C(=O)CCCCCCCCCCC (stereo not given)
inactive: NCI-H460 20.5 µM | SNB-19 17.9 µM | OVCAR-5 41 µM | Hs-578T 26.3 µM | TK-10 16.3 µM | RPMI-8226 29 µM | SK-MEL-5 17.5 µM | MDA-N 21 µM | 786-0 19 µM | SF-268 20.1 µM | SNB-75 18.5 µM | SK-OV-3 22.3 µM | SF-539 39.8 µM | LOX IMVI 21.3 µM | UACC-62 20.2 µM | MDA-MB-231 22.6 µM | UACC-257 20.9 µM | NCI-H226 23.4 µM | HCC 2998 18.4 µM | OVCAR-8 23 µM

CCOC(=O)N1CCC2(CC1)C[C@](Sc1ccccc1)(C(C)=O)[C@H](C)O2
inactive: NCI-H460 > 100 µM | SNB-19 > 100 µM | OVCAR-5 > 100 µM | Hs-578T > 100 µM | TK-10 > 100 µM | RPMI-8226 > 100 µM | SK-MEL-5 > 100 µM | MDA-N 53.5 µM | 786-0 > 100 µM | SF-268 > 100 µM | SNB-75 > 100 µM | SK-OV-3 > 100 µM | SF-539 > 100 µM | LOX IMVI > 100 µM | UACC-62 > 100 µM | MDA-MB-231 > 100 µM | UACC-257 > 100 µM | NCI-H226 > 100 µM | HCC 2998 > 100 µM | OVCAR-8 > 100 µM

O=C(O)c1ccccc1Sc1ccccc1[N+](=O)[O-]
inactive: NCI-H460 > 100 µM | SNB-19 > 100 µM | OVCAR-5 > 100 µM | Hs-578T > 100 µM | TK-10 > 100 µM | RPMI-8226 > 100 µM | SK-MEL-5 > 100 µM | MDA-N > 100 µM | 786-0 > 100 µM | SF-268 > 100 µM | SNB-75 76.9 µM | SK-OV-3 > 100 µM | SF-539 > 100 µM | LOX IMVI > 100 µM | UACC-62 > 100 µM | MDA-MB-231 > 100 µM | UACC-257 > 100 µM | NCI-H226 > 100 µM | HCC 2998 > 100 µM | OVCAR-8 > 100 µM
